Tests used:
PBMCs = test: Western blot of LPS-stimulated PBMCs for phosphorylated proteins; format: cell-based, human; settings: 1.0 μM CNI-1493 pre-incubation, LPS 15 minutes
Description: Peripheral Blood Mononuclear Cells (PBMCs) were isolated from peripheral blood from healthy volunteers using standard density-gradient centrifugation over Ficoll-Paque Plus (Amersham Pharmacia Biotech AB, Uppsala, Sweden) after washing in resuspension in IMDM supplemented with 10% FBS, penicillin, streptomycin and amphotericin (hereafter referred to as complete IMDM).
For western blot samples, […] PBMCs were suspended in 1 ml media and LPS stimulations were 15 minute incubations (37° C., 5% CO2) with 10 ng/ml LPS or pre-incubated with 1.0 μM CNI-1493 (Cytokine PharmaSciences, Inc.). Stimulations were terminated by an ice-cold PBS wash. Cells were subsequently pelleted, lysed, denatured (5 minutes at 95° C.) and stored at −20° C. 10^6 PBMCs lysed in 200 μl SDS Sample Buffer (62.5 mM Tris-HCl (pH 6.8 at 25° C.), 2% w/v SDS, 10% glycerol, 50 mM DTT, 0.01% w/v bromophenol blue), 25 μl of which was separated on 12% SDS-PAGE gels and transferred to nitrocellulose membranes. Antibodies for immunoblotting were from Cell Signaling and included Phospho-p38 MAP Kinase (cat #9211), Phospho-p44/42 MAP Kinase (cat #9101), Phospho-PKCzeta/lambda (cat #9378), Phospho-MEK1/2 (cat #9121), Phospho-Raf (cat #9424) and Phospho-SAPK/JNK (cat #9255).

[1] = CRP serum levels of Crohn's disease patients in the Semapimod pilot study; format: in vivo, human
From the text: FIGS. 9A and B show the IHC analysis of Crohn's disease patients who participated in the Semapimod pilot study. […] CRP levels of patient #12 were not affected by Semapimod (e.g. nonresponder). Importantly, pMek1/2 expression was also not affected by Semapimod in this nonresponder. […] This finding correlates with the low CRP levels at baseline (FIG. 9B).

[2] = steroid- and infliximab-resistant Crohn's disease; cited from earlier work
Raf kinase = test: Raf in vitro kinase assay (pMek immunoblot); format: biochemical; settings: active Raf kinase, 1 μM Semapimod for 5 and 10 minutes
Description: A commercially available in vitro kinase kit (Upstate, cat#: 17-360) was used to study the direct effect of Semapimod on Raf kinase activity. […] Furthermore, active Raf together with Mek, without Semapimod, served as a positive control. Active Raf without the Mek-substrate, left untreated, served as a negative control. The in vitro kinase reaction was performed at 30 C.° for 20 minutes. Sample buffer was added to terminate the reaction, and loaded on […] SDS-PAGE. The immunoblot was analyzed for pMek expression.
Pan-Raf protein expression was analyzed to test for equal loading. Two experiments were performed and similar results were obtained.

Compound: C/C(=N\NC(=N)N)c1cc(NC(=O)CCCCCCCCC(=O)Nc2cc(/C(C)=N/NC(=N)N)cc(/C(C)=N/NC(=N)N)c2)cc(/C(C)=N/NC(=N)N)c1 [Semapimod]
- MEK phosphorylation (PBMCs): abolishes MEK phosphorylation
- lipopolysaccharide-dependent phosphorylation of the PKC site in c-Raf (PBMCs): does not interfere
- CRP, responders ([1]; Crohn's disease patients n=5, all responders): CRP decrease
- CRP levels, nonresponder ([1]; patient #12): not affected
- clinical effect in Crohn's disease [2]: induces clinical remission and endoscopal healing
- Raf kinase activity (Raf kinase): inhibited
- pMek1/2 expression in in vitro kinase assay (Raf kinase; inactive Mek-substrate): reduced pMek1/2 expression

— US20090036540A1, “Guanylhydrazones in Methods of Treatment or Diagnosis as Modulators of Signal Transduction” (Cytokine PharmaSciences, Inc., priority 2003, published 2009)
